The results in this text go back to US7105553B2, “Thiazolyl amide derivatives” (Bayer Aktiengesellschaft, priority 1999, dated 2006).

The melting point is the temperature of the solid-liquid transition.

In turn, `CNS(=O)(=O)c1sc(N(C)C(=O)Cc2ccc(-c3ccc(Cl)cc3)cc2)nc1C` displayed a melting point of 186 °C. As to `Cc1nc(N(C)C(=O)Cc2ccc(-c3ccccc3)cc2)sc1S(=O)(=O)NCCO[Si](C)(C)C(C)(C)C`, the melting point is 128 °C. In turn, `COCCN(C(=O)Cc1ccc(-c2cc(F)ccc2OC)cc1)c1nc(C)c(S(N)(=O)=O)s1` returned a melting point of 199 °C. The compound `CCOc1ccc(CC(=O)N(CCN(C)C)c2nc(C)c(S(=O)(=O)NC)s2)cc1` showed a melting point of 153 °C.

The compound `Cc1nc(N(C(=O)Cc2ccc(-c3ccccc3)cc2)C2CC2)sc1S(N)(=O)=O` came in with a melting point of 179 °C. With `CNS(=O)(=O)c1sc(N(C(=O)Cc2ccc(-c3ccccc3)cc2)C2CC2)nc1C`, the melting point is 202 °C. Turning to `CCCN(C(=O)Cc1ccc(-c2ccccc2)cc1)c1nc(C)c(S(N)(=O)=O)s1`, the melting point was 154 °C.

In turn, `CNS(=O)(=O)c1sc(N(Cc2cccnc2)C(=O)Cc2ccc(-c3ccccc3)cc2)nc1C` yielded a melting point of 161 °C.

`CNS(=O)(=O)c1sc(N(CCCN2CCCC2=O)C(=O)Cc2ccc(-c3ccccc3)cc2)nc1C` returned a melting point of 158 °C. `COCCCNS(=O)(=O)c1sc(N(C)C(=O)Cc2ccc(-c3ccccc3)cc2)nc1C` returned a melting point of 142 to 143 °C. For `CCOCCCNS(=O)(=O)c1sc(N(CCCOCC)C(=O)Cc2ccc(-c3cccc(OC)c3)cc2)nc1C`, the melting point fell in the range of 74 to 75 °C. The same measure for `CCOCCNS(=O)(=O)c1sc(N(C)C(=O)Cc2ccc(OCC)cc2)nc1C`: 125 to 127 °C; for `CNS(=O)(=O)c1sc(N(C)C(=O)Cc2ccc(-c3cccc(OC)c3)cc2)nc1C`: 154 °C; for `CCCN(C(=O)Cc1ccc(-c2ccccc2)cc1)c1nc(C)c(S(=O)(=O)NCC(F)(F)F)s1`: 108 °C. For `CNS(=O)(=O)c1sc(N(C)C(=O)Cc2ccc(-c3ncccc3N)cc2)nc1C`, the melting point stood at 80 °C. `CNS(=O)(=O)c1sc(N(C)C(=O)Cc2ccc(-c3cncc(C#N)c3)cc2)nc1C` displayed a melting point of 130 °C. The same measure for `CNS(=O)(=O)c1sc(N(C)C(=O)Cc2ccc(-c3cnccc3C)cc2)nc1C`: 113 °C; for `CNS(=O)(=O)c1sc(N(C)C(=O)Cc2ccc(-c3ccccc3C)cc2)nc1C`: 167 °C. On to `COc1ccc(F)cc1-c1ccc(CC(=O)N(C)c2nc(C)c(S(N)(=O)=O)s2)cc1`, for which the melting point worked out at 219 °C. Compound `CCOc1ccc(CC(=O)N(Cc2ccncc2)c2nc(C)c(S(N)(=O)=O)s2)cc1` registered a melting point of 122 °C. `Cc1nc(N(Cc2ccccn2)C(=O)Cc2ccc(-c3ccccc3)cc2)sc1S(N)(=O)=O`: the melting point worked out at 205 °C. In turn, `CNS(=O)(=O)c1sc(N(C)C(=O)Cc2ccc(-c3cccc4c3oc3ccccc34)cc2)nc1C` came in with a melting point of 109 °C. The same measure for `Cc1cnc(N)c(-c2ccc(CC(=O)N(C)c3nc(C)c(S(N)(=O)=O)s3)cc2)c1`: 183 °C; for `Cc1nc(N(C)C(=O)Cc2ccc(-c3ncccc3N)cc2)sc1S(N)(=O)=O.Cl`: 264 °C; for `Cc1nc(N(C)C(=O)Cc2ccc(-c3c(F)cccc3F)cc2)sc1S(N)(=O)=O`: 215 °C.

In the case of `Cc1nc(N(C)C(=O)Cc2ccc(-c3ccccc3)cc2)sc1S(=O)(=O)NCCN`, the melting point is 138 °C. On to `Cc1nc(N(CCc2ccccn2)C(=O)Cc2ccc(-c3ccccc3)cc2)sc1S(N)(=O)=O`, for which the melting point worked out at 136 °C. The same measure for `Cc1nc(N(CC2CC2)C(=O)Cc2ccc(-c3ccccc3)cc2)sc1S(N)(=O)=O`: 161 °C; for `Cc1nc(N(CCc2ccccc2)C(=O)Cc2ccc(-c3ccccc3)cc2)sc1S(N)(=O)=O`: 174 °C. The same measure for `Cc1nc(N(CCCN2CCCC2=O)C(=O)Cc2ccc(-c3ccccc3)cc2)sc1S(N)(=O)=O`: 203 °C; for `Cc1nc(N(CCN2CCCC2=O)C(=O)Cc2ccc(-c3ccccc3)cc2)sc1S(N)(=O)=O`: 202 °C.
